Data published in the NIST ThermoML archive (doi:10.1016/j.fluid.2010.05.001).

How the values were obtained:
[1] = xn = mol fraction of the nth substance listed; settings: 101 kPa, Liquid, Vibrating tube method
[2] = 101.33 kPa, Liquid, Vibrating tube method

CN1CCCCC1 [N-methylpiperidine] + O
[1]
Settings | mass density [kg/m3]
288.15 K, x1 = 0.0101 | 994.829
288.15 K, x1 = 0.0728 | 966.82
288.15 K, x1 = 0.0971 | 957.332
288.15 K, x1 = 0.1499 | 939.294
288.15 K, x1 = 0.2452 | 913.306
288.15 K, x1 = 0.3359 | 895.82
288.15 K, x1 = 0.3895 | 886.349
288.15 K, x1 = 0.55 | 863.074
288.15 K, x1 = 0.66 | 850.384
288.15 K, x1 = 0.7 | 846.317
288.15 K, x1 = 0.8 | 836.071
288.15 K, x1 = 0.9 | 828.075
298.15 K, x1 = 0.0133 | 990.926
298.15 K, x1 = 0.0248 | 985.215
298.15 K, x1 = 0.0299 | 982.27
298.15 K, x1 = 0.0728 | 960.309
298.15 K, x1 = 0.0971 | 949.172
298.15 K, x1 = 0.19 | 917.46
298.15 K, x1 = 0.2452 | 903.811
298.15 K, x1 = 0.3359 | 884.947
298.15 K, x1 = 0.4036 | 873.347
298.15 K, x1 = 0.453 | 865.779
298.15 K, x1 = 0.4767 | 862.238
298.15 K, x1 = 0.505 | 858.158
298.15 K, x1 = 0.595 | 846.184
298.15 K, x1 = 0.6987 | 835.141
298.15 K, x1 = 0.7907 | 826.047
298.15 K, x1 = 0.8822 | 819.375
308.15 K, x1 = 0.0133 | 987.229
308.15 K, x1 = 0.0153 | 986.286
308.15 K, x1 = 0.0248 | 980.469
308.15 K, x1 = 0.0299 | 976.97
308.15 K, x1 = 0.0728 | 952.068
308.15 K, x1 = 0.0971 | 941.377
308.15 K, x1 = 0.1972 | 908.857
308.15 K, x1 = 0.391 | 866.58
308.15 K, x1 = 0.4972 | 849.931
308.15 K, x1 = 0.57 | 840.165
308.15 K, x1 = 0.6987 | 825.724
308.15 K, x1 = 0.78 | 818.342
318.15 K, x1 = 0.00418 | 987.683
318.15 K, x1 = 0.00896 | 985.125
318.15 K, x1 = 0.0153 | 981.488
318.15 K, x1 = 0.018 | 979.939
318.15 K, x1 = 0.02 | 978.288
318.15 K, x1 = 0.15 | 912.237
318.15 K, x1 = 0.1972 | 896.689
318.15 K, x1 = 0.3 | 874.067
318.15 K, x1 = 0.4972 | 840.492
318.15 K, x1 = 0.66 | 821.213
318.15 K, x1 = 0.85 | 804
328.15 K, x1 = 0.00418 | 983.308
328.15 K, x1 = 0.00896 | 980.507
328.15 K, x1 = 0.01 | 979.617
328.15 K, x1 = 0.0133 | 977.934
328.15 K, x1 = 0.3823 | 848.444
328.15 K, x1 = 0.545 | 824.697
328.15 K, x1 = 0.7049 | 807.305
328.15 K, x1 = 0.795 | 800.206
328.15 K, x1 = 0.945 | 790.511

CC1CCCCN1 (stereo unspecified) [2-methylpiperidine]
[2]
Settings | mass density [kg/m3] | molar volume [m3/mol]
288.15 K | 846.703 | 0.0001171
298.15 K | 835.787 | 0.0001187
308.15 K | 826.08 | 0.0001201
318.15 K | 817.349 | 0.0001213
328.15 K | 809.08 | 0.0001226
338.15 K | 801.96 | 0.0001237

CC1CCCCN1 (stereo unspecified) [2-methylpiperidine] + O
[1]
Settings | mass density [kg/m3]
288.15 K, x1 = 0.022 | 992.158
288.15 K, x1 = 0.0488 | 982.491
288.15 K, x1 = 0.0966 | 965.22
288.15 K, x1 = 0.1901 | 940.03
288.15 K, x1 = 0.3019 | 918.147
288.15 K, x1 = 0.4006 | 904.274
288.15 K, x1 = 0.47 | 896.239
288.15 K, x1 = 0.59 | 883.489
288.15 K, x1 = 0.685 | 874.59
288.15 K, x1 = 0.775 | 866.186
288.15 K, x1 = 0.813 | 863.581
298.15 K, x1 = 0.0506 | 976.147
298.15 K, x1 = 0.0951 | 957.78
298.15 K, x1 = 0.1955 | 930.75
298.15 K, x1 = 0.288 | 911.236
298.15 K, x1 = 0.3958 | 894.275
298.15 K, x1 = 0.45 | 886.977
298.15 K, x1 = 0.4708 | 884.952
298.15 K, x1 = 0.5925 | 871.352
298.15 K, x1 = 0.7 | 860.793
298.15 K, x1 = 0.8043 | 851.545
308.15 K, x1 = 0.0506 | 969.86
308.15 K, x1 = 0.0951 | 951.024
308.15 K, x1 = 0.1955 | 921.38
308.15 K, x1 = 0.288 | 902.606
308.15 K, x1 = 0.388 | 886.089
308.15 K, x1 = 0.463 | 875.982
308.15 K, x1 = 0.585 | 861.756
308.15 K, x1 = 0.6501 | 855.347
318.15 K, x1 = 0.0506 | 963.421
318.15 K, x1 = 0.0951 | 943.575
318.15 K, x1 = 0.1955 | 912.95
318.15 K, x1 = 0.288 | 893.567
318.15 K, x1 = 0.388 | 876.681
318.15 K, x1 = 0.463 | 866.663
318.15 K, x1 = 0.585 | 852.312
318.15 K, x1 = 0.6501 | 846.574
328.15 K, x1 = 0.05 | 957.601
328.15 K, x1 = 0.0982 | 935.269
328.15 K, x1 = 0.3019 | 883.044
328.15 K, x1 = 0.4006 | 867.078
328.15 K, x1 = 0.4585 | 859.202
328.15 K, x1 = 0.5699 | 846.009
328.15 K, x1 = 0.6591 | 836.942
328.15 K, x1 = 0.775 | 826.192
338.15 K, x1 = 0.0951 | 926.141
338.15 K, x1 = 0.1901 | 897.2
338.15 K, x1 = 0.3019 | 873.469
338.15 K, x1 = 0.365 | 863.604
338.15 K, x1 = 0.4585 | 850.39
338.15 K, x1 = 0.5925 | 834.463
338.15 K, x1 = 0.8043 | 816.519

CN1CCCCC1 [N-methylpiperidine]
[2]
Settings | mass density [kg/m3] | molar volume [m3/mol]
288.15 K | 822.237 | 0.0001206
298.15 K | 810.887 | 0.0001223
308.15 K | 803.846 | 0.0001234
318.15 K | 796.931 | 0.0001244
328.15 K | 785.64 | 0.0001262
338.15 K | 781.618 | 0.0001269
